Source: article PMC6009956, “Design, synthesis and biological activity of N^4-phenylsubstituted-7H-pyrrolo[2,3-d]pyrimidin-4-amines as dual inhibitors of aurora kinase A and epidermal growth factor receptor kinase” (Journal of Enzyme Inhibition and Medicinal Chemistry, 2017)
Like-named read-outs stand apart in the source and are kept apart here.

Columns and labels:
aurora A kinase (AURKA) = target: T1, aurora A kinase (AURKA) (Homo sapiens, UniProt O14965); test: ADP-Glo kinase assay, Aurora A; format: biochemical
T1 construct: purchased BPS Bioscience (assay run externally by the vendor)
T1 sequence (O14965 1-403): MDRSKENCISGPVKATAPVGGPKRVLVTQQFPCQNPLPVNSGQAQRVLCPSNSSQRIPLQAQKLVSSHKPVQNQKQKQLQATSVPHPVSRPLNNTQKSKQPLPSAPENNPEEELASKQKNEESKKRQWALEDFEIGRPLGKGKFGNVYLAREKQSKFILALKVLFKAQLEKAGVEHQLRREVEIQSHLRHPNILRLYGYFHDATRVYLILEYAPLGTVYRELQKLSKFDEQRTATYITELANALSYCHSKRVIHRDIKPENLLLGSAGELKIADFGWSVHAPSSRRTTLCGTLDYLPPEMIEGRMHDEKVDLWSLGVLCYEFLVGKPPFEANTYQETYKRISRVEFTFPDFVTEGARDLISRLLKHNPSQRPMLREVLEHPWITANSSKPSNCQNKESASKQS

EGFR = EGFR (Homo sapiens, UniProt P00533); test: ADP-Glo kinase assay, EGFR; format: biochemical; set-up: purchased BPS Bioscience (assay run externally by the vendor)
Sequence of EGFR (P00533 25-1210): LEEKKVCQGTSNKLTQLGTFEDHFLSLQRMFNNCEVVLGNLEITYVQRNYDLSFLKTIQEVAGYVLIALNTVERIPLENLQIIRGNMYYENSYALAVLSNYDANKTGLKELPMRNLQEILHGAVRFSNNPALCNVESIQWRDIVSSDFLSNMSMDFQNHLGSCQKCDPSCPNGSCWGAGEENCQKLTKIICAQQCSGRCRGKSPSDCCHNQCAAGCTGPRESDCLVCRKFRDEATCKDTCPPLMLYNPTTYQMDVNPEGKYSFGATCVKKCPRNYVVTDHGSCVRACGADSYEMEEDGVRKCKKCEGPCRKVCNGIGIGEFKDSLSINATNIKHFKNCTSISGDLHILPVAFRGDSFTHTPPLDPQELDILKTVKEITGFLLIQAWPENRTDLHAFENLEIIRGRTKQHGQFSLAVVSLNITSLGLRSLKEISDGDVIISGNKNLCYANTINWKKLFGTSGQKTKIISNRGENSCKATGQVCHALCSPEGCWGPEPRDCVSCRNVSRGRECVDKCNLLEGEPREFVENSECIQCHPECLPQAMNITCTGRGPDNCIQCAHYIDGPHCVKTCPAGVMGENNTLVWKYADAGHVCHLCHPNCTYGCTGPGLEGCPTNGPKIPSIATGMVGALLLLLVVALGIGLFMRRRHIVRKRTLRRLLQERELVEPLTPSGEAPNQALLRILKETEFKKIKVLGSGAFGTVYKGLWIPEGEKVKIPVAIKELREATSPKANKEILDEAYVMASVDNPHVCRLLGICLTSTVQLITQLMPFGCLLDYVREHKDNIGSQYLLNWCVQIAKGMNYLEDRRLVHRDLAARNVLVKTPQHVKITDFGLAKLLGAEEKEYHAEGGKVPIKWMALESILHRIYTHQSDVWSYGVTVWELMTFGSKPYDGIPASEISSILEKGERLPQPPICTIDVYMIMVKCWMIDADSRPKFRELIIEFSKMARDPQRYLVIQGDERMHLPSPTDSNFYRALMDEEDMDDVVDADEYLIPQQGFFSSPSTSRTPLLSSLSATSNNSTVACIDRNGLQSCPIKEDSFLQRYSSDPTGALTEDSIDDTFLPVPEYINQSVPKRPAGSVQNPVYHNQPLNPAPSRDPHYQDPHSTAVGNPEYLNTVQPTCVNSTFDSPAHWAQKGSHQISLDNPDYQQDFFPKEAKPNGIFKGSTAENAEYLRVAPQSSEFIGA

## CN[C@@H]1C[C@H]2O[C@@](C)([C@@H]1OC)n1c3ccccc3c3c4c(c5c6ccccc6n2c5c31)C(=O)NC4 [Staurosporine, staurosporine, reference compound]
Aurora A kinase (AURKA); Log[nM] 0
  Aurora A % Activity Set1: 109%
  Aurora A % Activity Set2: 103%
  Aurora A % Activity Set3: 109%
Aurora A kinase (AURKA); Log[nM] 1.0
  Aurora A % Activity Set1: 102%
  Aurora A % Activity Set2: 101%
  Aurora A % Activity Set3: 102%
Aurora A kinase (AURKA); Log[nM] 1.5
  Aurora A % Activity Set1: 73%
  Aurora A % Activity Set2: 69%
  Aurora A % Activity Set3: 85%
Aurora A kinase (AURKA); Log[nM] 2.0
  Aurora A % Activity Set2: 9%
Aurora A kinase (AURKA); Log[nM] -0.5
  Aurora A % Activity Set1: 98%
  Aurora A % Activity Set2: 100%
  Aurora A % Activity Set3: 102%
Aurora A kinase (AURKA); Log[nM] -1.0
  Aurora A % Activity Set1: 100%
  Aurora A % Activity Set2: 93%
  Aurora A % Activity Set3: 102%

## c1ccc(Cc2ccc(Nc3ncnc4[nH]ccc34)cc2)cc1 [Compound 18, N^4-(4-benzylphenyl)-7H-pyrrolo[2,3-d]pyrimidin-4-amine]
Aurora A kinase (AURKA)
  Fold better than compound 17 against AURKA: approximately two-fold
Aurora A kinase (AURKA); 10 µM ATP, triplicate, read-out: AURKA IC50 ± SD
  IC50: 4950 ± 690 nM
Aurora A kinase (AURKA); 10 µM ATP/0.2 mg/ml Kemptide, read-out: Aurora A IC50 (dose-response curve, supplement)
  IC50: 5000 nM
Aurora A kinase (AURKA); Log[nM] 0
  Aurora A % Activity Set1: 110%
  Aurora A % Activity Set2: 93%
  Aurora A % Activity Set3: 104%
Aurora A kinase (AURKA); Log[nM] 1.0
  Aurora A % Activity Set1: 103%
  Aurora A % Activity Set2: 93%
  Aurora A % Activity Set3: 101%
Aurora A kinase (AURKA); Log[nM] 1.5
  Aurora A % Activity Set1: 105%
  Aurora A % Activity Set2: 96%
  Aurora A % Activity Set3: 105%
Aurora A kinase (AURKA); Log[nM] 2.0
  Aurora A % Activity Set1: 103%
  Aurora A % Activity Set2: 93%
  Aurora A % Activity Set3: 100%
Aurora A kinase (AURKA); Log[nM] 2.5
  Aurora A % Activity Set1: 90%
  Aurora A % Activity Set2: 86%
  Aurora A % Activity Set3: 93%
Aurora A kinase (AURKA); Log[nM] 3.0
  Aurora A % Activity Set1: 77%
  Aurora A % Activity Set2: 73%
  Aurora A % Activity Set3: 85%
Aurora A kinase (AURKA); Log[nM] 3.5
  Aurora A % Activity Set1: 51%
  Aurora A % Activity Set2: 45%
  Aurora A % Activity Set3: 47%
Aurora A kinase (AURKA); Log[nM] 4.0
  Aurora A % Activity Set1: 32%
  Aurora A % Activity Set2: 30%
  Aurora A % Activity Set3: 31%
Aurora A kinase (AURKA); Log[nM] 4.5
  Aurora A % Activity Set1: 29%
  Aurora A % Activity Set2: 26%
  Aurora A % Activity Set3: 26%
Aurora A kinase (AURKA); Log[nM] 5.0
  Aurora A % Activity Set1: 30%
  Aurora A % Activity Set2: 26%
  Aurora A % Activity Set3: 26%
EGFR; 10 µM ATP, triplicate, read-out: EGFR IC50 ± SD
  IC50: 63.3 ± 4.58 nM
EGFR; 10 µM ATP/0.2 mg/ml Poly-Glu-Tyr, read-out: EGFR IC50 (dose-response curve, supplement)
  IC50: 63.3 nM
EGFR; Log[nM] 0
  EGFR % Activity Set1: 96%
  EGFR % Activity Set2: 92%
  EGFR % Activity Set3: 95%
EGFR; Log[nM] 1.0
  EGFR % Activity Set1: 88%
  EGFR % Activity Set2: 83%
  EGFR % Activity Set3: 88%
EGFR; Log[nM] 1.5
  EGFR % Activity Set1: 66%
  EGFR % Activity Set2: 62%
  EGFR % Activity Set3: 65%
EGFR; Log[nM] 2.0
  EGFR % Activity Set1: 42%
  EGFR % Activity Set2: 38%
  EGFR % Activity Set3: 43%
EGFR; Log[nM] 2.5
  EGFR % Activity Set1: 16%
  EGFR % Activity Set2: 16%
  EGFR % Activity Set3: 16%
EGFR; Log[nM] 3.0
  EGFR % Activity Set1: 8%
  EGFR % Activity Set2: 8%
  EGFR % Activity Set3: 9%
EGFR; Log[nM] 3.5
  EGFR % Activity Set1: 3%
  EGFR % Activity Set2: 3%
  EGFR % Activity Set3: 3%
EGFR; Log[nM] 4.0
  EGFR % Activity Set1: 2%
  EGFR % Activity Set2: 2%
  EGFR % Activity Set3: 2%
EGFR; Log[nM] 4.5
  EGFR % Activity Set1: 2%
  EGFR % Activity Set2: 2%
  EGFR % Activity Set3: 2%
EGFR; Log[nM] 5.0
  EGFR % Activity Set1: 2%
  EGFR % Activity Set2: 3%
  EGFR % Activity Set3: 2%
